Here are results for twelve compounds from ChEMBL document CHEMBL1201862, “PubChem BioAssay data set” (2004).

Test systems include Malme-3M; TK-10; U-251; CCRF-CEM; HL-60; UACC-257; NCI-H23; SK-MEL-28; 786-0; EKVX; A549; HOP-92; CAKI-1; MCF7; SNB-75; PC-3; NCI/ADR-RES; HOP-62; MDA-N.
What all share (assay): DTP human tumour cell line panel, 48 h

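Grown in 96-well plates, cells were treated for 48 hours with each compound at five concentrations. Insufficient inhibition: endpoint recorded as highest concentration tested. GI50: concentration for 50% inhibition of growth.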 Calls of active or inactive are those of the source. Cut-off read from the data, not from the text of the source: active = GI50 up to about 1.1 µM and inactive = higher.

A word on the GI50: it is the concentration at which growth is held to half of that of the control. In the case of `COC(=O)Cc1cc(=O)[nH]c2c1C(=O)CCC2`, the GI50 with Malme-3M, with TK-10, with U-251, in the assay on CCRF-CEM, in the assay on HL-60 and in the assay on UACC-257 was > 100 µM (inactive) throughout. Further, the GI50 in the assay with NCI-H23, in the assay with SK-MEL-28, in the assay with 786-0, with EKVX, in the assay on A549 and with HOP-92 was > 100 µM (inactive) throughout.
In the case of `Cn1c(=O)c2c(nc3n(Cc4ccccc4)c(=O)c(NCCCBr)cn23)n(C)c1=O`, the GI50 was 38.5 µM (inactive) in the assay with TK-10; 34.1 µM (inactive) in the assay with U-251; > 100 µM (inactive) with CAKI-1; > 100 µM (inactive) with CCRF-CEM; > 100 µM (inactive) in the assay with HL-60; > 100 µM (inactive) in the assay on UACC-257. In addition, the GI50 with NCI-H23 is > 100 µM (inactive); with SK-MEL-28, > 100 µM (inactive); with MCF7 it was > 100 µM (inactive); in the assay on 786-0 it was 23.9 µM (inactive); with SNB-75, 24.8 µM (inactive); in the assay with EKVX, 43.6 µM (inactive). The GI50 is > 100 µM (inactive) with A549; > 100 µM (inactive) in the assay on PC-3; > 100 µM (inactive) with NCI/ADR-RES; 26.5 µM (inactive) with HOP-62; 18.1 µM (inactive) in the assay with HOP-92.
Take `N#Cc1c(-c2ccc([N+](=O)[O-])cc2)cc(-c2ccc(Nc3ccnc4cc(C(F)(F)F)ccc34)cc2)[nH]c1=O`: the GI50 in the assay with Malme-3M was > 100 µM (inactive); with TK-10, 52.2 µM (inactive); in the assay on U-251 it was 10 µM (inactive); with CAKI-1, > 100 µM (inactive); in the assay with CCRF-CEM, > 100 µM (inactive); with UACC-257 it was > 100 µM (inactive). Further, the GI50 with NCI-H23 was > 100 µM (inactive); in the assay with SK-MEL-28, > 100 µM (inactive); in the assay on MCF7, > 100 µM (inactive); with 786-0, 51.9 µM (inactive); with SNB-75, > 100 µM (inactive); with EKVX, > 100 µM (inactive). In addition, the GI50 with A549, in the assay with PC-3, in the assay with NCI/ADR-RES and in the assay on HOP-62 was > 100 µM (inactive) throughout.
For `O=[N+]([O-])C(=C(Nc1ccccc1)Nc1ccccc1)/C(Cl)=C(\Cl)Br`, the GI50 in the assay on Malme-3M was 16.5 µM (inactive); with U-251 it was 15 µM (inactive); with CCRF-CEM, 2.15 µM (inactive); with HL-60 it was 1.76 µM (inactive); in the assay on UACC-257 it was 14.7 µM (inactive); with NCI-H23, 12.1 µM (inactive). For the same compound, the GI50 was 13.6 µM (inactive) with SK-MEL-28; 12.5 µM (inactive) in the assay on MCF7; 16.3 µM (inactive) in the assay with 786-0; 12.4 µM (inactive) in the assay on SNB-75; 14.8 µM (inactive) with EKVX; 20.7 µM (inactive) in the assay with A549. The GI50 was 15.6 µM (inactive) in the assay with PC-3, 9.48 µM (inactive) in the assay on NCI/ADR-RES, 22 µM (inactive) in the assay with HOP-62 and 17.7 µM (inactive) with HOP-92.
Take `CN(C)/C=N/S(=O)(=O)c1nn2c(C=O)c(-c3ccc(Cl)cc3)nc2s1`: the GI50 in the assay with Malme-3M was 1.47 µM (inactive); with TK-10 it was 1.5 µM (inactive); in the assay on U-251 it was 2.95 µM (inactive); in the assay on CAKI-1, 0.995 µM (active); with CCRF-CEM, 0.228 µM (active); in the assay with UACC-257 it was 2.7 µM (inactive). The GI50 with NCI-H23 was 2.34 µM (inactive); with SK-MEL-28, 1.62 µM (inactive); with MCF7 it was 0.897 µM (active); in the assay with 786-0 it was 1.25 µM (inactive); in the assay with SNB-75, 11.2 µM (inactive); with EKVX it was 3.28 µM (inactive). Besides, the GI50 in the assay on A549 is 8.26 µM (inactive); in the assay on PC-3, 2.46 µM (inactive); in the assay on NCI/ADR-RES it was 2.22 µM (inactive); in the assay with HOP-62, 13.2 µM (inactive); in the assay on HOP-92, 2.34 µM (inactive).
As to `C=C(c1ccc2[nH]c(NC(=O)OC)nc2c1)c1cccs1`, the concentration for 50% growth inhibition (GI50) is 0.0855 µM (active) in the assay with Malme-3M; 0.22 µM (active) with TK-10; 0.0791 µM (active) in the assay on U-251; < 0.046 µM (active) with CAKI-1; 0.556 µM (active) with UACC-257; 0.129 µM (active) in the assay on NCI-H23. Besides, the GI50 is 3.47 µM (inactive) with SK-MEL-28; 0.0925 µM (active) in the assay with MCF7; 0.155 µM (active) with 786-0; 9.46 µM (inactive) in the assay with EKVX; 0.16 µM (active) in the assay on A549; 0.0914 µM (active) in the assay with PC-3. In addition, the GI50 in the assay on NCI/ADR-RES is 0.0488 µM (active); with HOP-62 it was 0.206 µM (active); in the assay with HOP-92, 0.975 µM (active).
As for `CCc1ccccc1NC(=O)C(C#N)C1=C(Cl)C(=O)c2ccccc2C1=O` (stereo unspecified), the GI50 in the assay on Malme-3M is 6.07 µM (inactive); in the assay on TK-10, 18.7 µM (inactive); in the assay on U-251 it was 15.4 µM (inactive); with CAKI-1 it was 20.3 µM (inactive); in the assay on CCRF-CEM it was 3.41 µM (inactive); in the assay with HL-60, 26.2 µM (inactive). For the same compound, the GI50 was 16.4 µM (inactive) in the assay on UACC-257; 12.6 µM (inactive) with NCI-H23; 16.9 µM (inactive) with SK-MEL-28; 22.8 µM (inactive) in the assay on MCF7; 15.5 µM (inactive) in the assay on 786-0; 17.3 µM (inactive) with SNB-75. For the same compound, the GI50 with EKVX is 17.1 µM (inactive); with A549, 21.9 µM (inactive); in the assay with PC-3, 14.6 µM (inactive); in the assay with NCI/ADR-RES, 16.7 µM (inactive); in the assay on HOP-62, 19.1 µM (inactive); in the assay on HOP-92, 29.4 µM (inactive).
In the case of `O=[N+]([O-])c1ccc(/C=C/c2ccc(/C=C/c3ccc([N+](=O)[O-])cc3[N+](=O)[O-])cc2)c([N+](=O)[O-])c1`, the GI50 with Malme-3M, with TK-10, with U-251, in the assay on CAKI-1, with CCRF-CEM and in the assay on HL-60 was > 100 µM (inactive) in each case. Moreover, the GI50 in the assay with UACC-257, in the assay on NCI-H23, in the assay on SK-MEL-28, with 786-0, in the assay with SNB-75 and with EKVX was > 100 µM (inactive) in each case. Besides, the GI50 with A549 and in the assay on HOP-62 was > 100 µM (inactive) each time.
Regarding `CCNCCNC(=O)c1ccc(Br)cc1`, the GI50 in the assay with TK-10, with U-251, with CAKI-1, with CCRF-CEM, in the assay on HL-60 and in the assay on NCI-H23 was > 100 µM (inactive) in each case. The GI50 is > 100 µM (inactive) with SK-MEL-28; > 100 µM (inactive) in the assay with MCF7; > 100 µM (inactive) in the assay with 786-0; 63.4 µM (inactive) in the assay with SNB-75; > 100 µM (inactive) in the assay with EKVX; > 100 µM (inactive) in the assay with A549. The GI50 in the assay on PC-3, with NCI/ADR-RES and with HOP-92 was > 100 µM (inactive) throughout.
Consider `c1ccc(-c2nnc(CCCCCCCCc3nnc(-c4ccccc4)o3)o2)cc1`, for which the GI50 is > 100 µM (inactive) with Malme-3M; > 100 µM (inactive) with TK-10; 53 µM (inactive) in the assay on U-251; 46 µM (inactive) in the assay with CAKI-1; 52.5 µM (inactive) with CCRF-CEM; 30.6 µM (inactive) in the assay on HL-60. The GI50 in the assay with UACC-257 was 42.2 µM (inactive); in the assay with NCI-H23, > 100 µM (inactive); in the assay on SK-MEL-28, > 100 µM (inactive); in the assay with MCF7 it was 38.2 µM (inactive); in the assay on 786-0 it was 74 µM (inactive); in the assay with SNB-75, > 100 µM (inactive). For the same compound, the GI50 with EKVX was > 100 µM (inactive); in the assay with A549, 32 µM (inactive); in the assay on PC-3 it was > 100 µM (inactive); with NCI/ADR-RES, > 100 µM (inactive); in the assay with HOP-62 it was 97.3 µM (inactive); with HOP-92, 50.9 µM (inactive).
Take `NC1CC(=O)c2ccccc21` (stereo unspecified): the GI50 in the assay on TK-10, with U-251, in the assay on CAKI-1, in the assay on CCRF-CEM, with UACC-257 and in the assay on NCI-H23 was > 100 µM (inactive) each time. For the same compound, the GI50 in the assay on SK-MEL-28, with MCF7, in the assay with 786-0, in the assay on SNB-75, in the assay on EKVX and with A549 was > 100 µM (inactive) throughout. The GI50 with PC-3, in the assay on NCI/ADR-RES, in the assay on HOP-62 and in the assay on HOP-92 was > 100 µM (inactive) throughout.
Regarding `N#C/C(C(=O)NCc1ccccc1)=C(/N)N1CCCC1`, the GI50 is > 100 µM (inactive) with Malme-3M; > 100 µM (inactive) in the assay on TK-10; > 100 µM (inactive) in the assay on MDA-N; > 100 µM (inactive) in the assay with U-251; 39.6 µM (inactive) in the assay with CAKI-1; > 100 µM (inactive) in the assay on CCRF-CEM. For the same compound, the GI50 with HL-60, in the assay with UACC-257, with NCI-H23, with SK-MEL-28, in the assay with 786-0 and in the assay on EKVX was > 100 µM (inactive) throughout. The GI50 in the assay on A549 is > 100 µM (inactive); in the assay on PC-3, > 100 µM (inactive); with NCI/ADR-RES it was > 100 µM (inactive); in the assay with HOP-62, > 100 µM (inactive); in the assay with HOP-92 it was 97.7 µM (inactive).
